Here are results for one compound from PMC4366275 (Anesthesiology, 2015).

Molecules are shown by their SMILES.

As a reminder, the Kd is the constant that tells how readily two partners part at equilibrium.

The target in the assay is PDZ1–3 (PDZ123) domains of PSD-95 (Rattus norvegicus, UniProt P31016). The assay can be described thus: […]-1H HSQC NMR chemical shift titration. The assay is classed as binding.
Sequence of PDZ1–3 (PDZ123) domains of PSD-95 (P31016 61-393): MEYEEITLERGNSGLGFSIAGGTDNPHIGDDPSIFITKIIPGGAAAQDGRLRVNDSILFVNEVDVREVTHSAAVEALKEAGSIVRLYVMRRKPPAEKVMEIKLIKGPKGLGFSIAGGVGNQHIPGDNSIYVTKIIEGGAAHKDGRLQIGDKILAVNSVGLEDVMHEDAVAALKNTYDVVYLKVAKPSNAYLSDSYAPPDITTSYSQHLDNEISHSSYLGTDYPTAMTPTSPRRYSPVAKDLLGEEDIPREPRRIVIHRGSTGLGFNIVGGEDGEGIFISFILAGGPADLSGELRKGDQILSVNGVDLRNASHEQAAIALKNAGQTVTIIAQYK

Consider `FC(F)OC(Cl)C(F)(F)F` (stereo not shown) [isoflurane], for which the dissociation constant (Kd) was approximately 3 mM.
